Data as given in patent US9441261B2, “Use of bacterial beta-lactamase for in vitro diagnostics and in vivo imaging, diagnostics and therapeutics” (priority 2008, dated 2016).
“Also recorded” adds a separate entry of the source. Like-named read-outs stand apart in the source and are kept apart here.

Key:
[1] = biological target: T1, TEM-1 Bla (Escherichia coli, UniProt P62593); format: biochemical, E. coli; details: for hydrolysis by TEM-1 bla: in words
[2] = biological target: Bla (Escherichia coli, UniProt P62593); format: biochemical; details: CC1 versus analog without inserted double bond
[3] = tested on: Bla in live E. coli; experiment: Detection of Bla activity in living E. coli; format: cell-based; details: E. coli with ampicillin resistant plasmid, LB media
[4] = biological target: T2, Mtb BlaC (Mycobacterium tuberculosis, UniProt P9WKD3); experiment: Hydrolysis kinetics of coumarin-based lactam probes by Mtb BlaC (fluorescence of released 7-hydroxycoumarin); format: biochemical
[5] = biological target: T2, Mtb BlaC; format: biochemical; details: for enzyme preference Mtb BlaC versus TEM-1 Bla: in words
[6] = biological target: T1, TEM-1 Bla; details: cefoperazone versus CNIR5
[7] = tested on: Bacillus Calmette-Guerin; format: cell-based, Mycobacterium bovis; details: 2 ng/μl rifampicin or 0.2 ng/μl INH, sputum, CDG-OMe, 24 hour
[8] = tested on: CCN1CCN(C(=O)N[C@@H](C(=O)N[C@@H]2C(=O)N3C(C(=O)O)=C(CSc4nnnn4C)CS[C@H]23)c2ccc(O)cc2)C(=O)C1=O; experiment: purified protein, by the assay type

T2 sequence (P9WKD3 35-307): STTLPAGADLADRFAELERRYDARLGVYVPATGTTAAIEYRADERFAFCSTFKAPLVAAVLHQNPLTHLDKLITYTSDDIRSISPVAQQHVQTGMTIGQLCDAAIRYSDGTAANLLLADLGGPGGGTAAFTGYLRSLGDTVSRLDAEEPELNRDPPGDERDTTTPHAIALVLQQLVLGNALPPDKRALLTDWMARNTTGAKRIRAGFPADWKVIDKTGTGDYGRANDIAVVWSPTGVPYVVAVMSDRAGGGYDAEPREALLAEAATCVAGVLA
T1 sequence (P62593 24-286 limits assumed): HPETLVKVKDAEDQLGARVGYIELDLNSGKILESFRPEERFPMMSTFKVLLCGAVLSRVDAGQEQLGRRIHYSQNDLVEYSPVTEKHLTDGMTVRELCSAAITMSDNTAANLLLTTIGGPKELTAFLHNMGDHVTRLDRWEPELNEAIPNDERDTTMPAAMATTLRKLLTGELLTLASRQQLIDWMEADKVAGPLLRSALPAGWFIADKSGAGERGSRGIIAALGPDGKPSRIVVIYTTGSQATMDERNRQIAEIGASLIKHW
Sequence of Bla (P62593 24-286 limits assumed): as above

CO[C@@]1(NC(C)=O)C(=O)N2C(C(=O)O)=C(COc3ccc4ccc(=O)oc4c3)CS[C@@H]21 [4-64]
hydrolysis by TEM-1 bla [1]: so slow that cannot be determined

O=C(Cc1ccccc1)N[C@@H]1C(=O)N2C(C(=O)O)=C(/C=C\COc3ccc4ccc(=O)oc4c3)CS[C@H]12 [CC1]
increase in the catalytic efficiency by the inserted double bond [2]: ~5 fold

CCCC(=O)Oc1cc2oc(=O)c(C(=O)NCC(=O)N[C@@H]3C(=O)N4C(C(=O)OCOC(C)=O)=C(CSc5ccc6c(c5)C(=O)OC65c6ccc(OC(C)=O)cc6Oc6cc(OC(C)=O)ccc65)CS[C@H]34)cc2cc1Cl [CCF2/AM]
detection of Bla in live E. coli [3]: not detected

O=C(Cc1ccccc1)N[C@@H]1C(=O)N2C(C(=O)O)=C(COc3ccc4ccc(=O)oc4c3)CS[C@H]12 [CDC-1]
enzyme preference Mtb BlaC versus TEM-1 Bla ([4]; in words): TEM-1 Bla-preferred

O=C(Cc1ccccc1)N[C@@H]1C(=O)N2C(C(=O)O)=C(COc3ccc4ccc(=O)oc4c3)C[S+]([O-])[C@H]12 (some centres unmarked) [CDC-2]
kcat ([4]; blaC): 0.51 s⁻¹
kcat ([1]; TEM-1 bla): 7 s⁻¹

CCO[C@@]1(NC(=O)Cc2ccccc2)C(=O)N2C(C(=O)O)=C(COc3ccc4ccc(=O)oc4c3)CS[C@@H]21 [CDC-OEt]
hydrolysis by TEM-1 bla [1]: so slow that cannot be determined

CO[C@@]1(NC(=O)Cc2ccccc2)C(=O)N2C(C(=O)O)=C(COc3ccc4ccc(=O)oc4c3)CS[C@@H]21 [CDC-OMe]
kcat/Km for blaC larger than for TEM-1 bla [4]: 1,400 fold

CCN1CCN(C(=O)N[C@@H](C(=O)N[C@@H]2C(=O)N3C(C(=O)O)=C(CSc4nnnn4C)CS[C@H]23)c2ccc(O)cc2)C(=O)C1=O [cefoperazone]
faster kinetics with the Mtb enzyme than the TEM-1 enzyme [5]: 10-100 fold
enzyme preference Mtb BlaC versus TEM-1 Bla [5]: preferred substrate for Mtb BlaC as compared to TEM-1 Bla; also recorded: better kinetics with the Mtb BlaC than TEM-1
kcat/KM for TEM-1 Bla smaller than that of CNIR5 [6]: 100 fold

CO/N=C(\C(=O)N[C@@H]1C(=O)N2C(C(=O)O)=C(COC(C)=O)CS[C@H]12)c1csc(N)n1 [cefotaxime]
enzyme preference Mtb BlaC versus TEM-1 Bla [5]: better kinetics with the Mtb BlaC than TEM-1

CO[C@@]1(NC(=O)Cc2cccs2)C(=O)N2C(C(=O)O)=C(COC(N)=O)CS[C@@H]21 [cefoxitin]
enzyme preference Mtb BlaC versus TEM-1 Bla [5]: better kinetics with the Mtb BlaC than TEM-1

NNC(=O)c1ccncc1 [isoniazide]
fluorescence of BCG with drug over time [7]: effectively no increase in fluorescence

Mtb BlaC (Mycobacterium tuberculosis H37Rv)
Km [8]: 76 µM
kcat [8]: 2.01 s⁻¹
kcat/Km [8]: 26000 M⁻¹ s⁻¹

TEM-1 Bla (Escherichia coli)
Km ([8]; other: TEM-1 Bla): 262 µM
kcat ([8]; other: TEM-1 Bla): 0.26 s⁻¹
kcat/Km ([8]; other: TEM-1 Bla): 1000 M⁻¹ s⁻¹
